Assay results taken from patent publication US20240280493A1, “CELLULAR SENSORS BASED ON SURFACE-ENHANCED RAMAN SCATTERING AND APPLICATION THEREOF” (CHINA PHARMACEUTICAL UNIVERSITY, priority 2022, published 2024).

Test system: γH2AX
Assay: Impurity genotoxicity assessment with the SERS cell-based sensor (L02 cells, Anti γH2AX@GPMT probe), fold of induction of γH2AX
Details: 24 h incubation, MMS 50 μg/ml, SA 50 μg/ml, 5-Fu 0.1 μg/ml, NDEA 500 μg/ml, FI > 1.5 judged genotoxic
Method: A human liver cell line L02 is cultured in DMEM containing 10% fetal calf serum, and put in a 37° C. incubator containing 5% CO2, and a sterile operation is performed in an entire process. When the cells grow to a logarithmic phase, L02 is inoculated into a 24-well plate containing a cell slide according to a density of 5000 cells/well, after being attached to a wall, a culture medium is replaced by a SERS probe culture medium with a concentration being 0.05 nM, and incubation is performed for 4 h.
The cell-based sensor culture medium is replaced by a culture medium containing impurities of different concentrations, continuous incubation is performed for 24 h, then the slide is taken out and put in a confocal inverted microscope bright and dark field imaging Raman spectrometer to be tested, the Raman signals of the test group and the control group are compared, and the impurity genotoxicity is assessed.
Methyl methanesulfonate (MMS), a salicylic acid (SA), 5-fluorouracil (5-Fu) and N-nitrosodiethylamine (NDEA) are selected respectively as genotoxic impurities of different structure types to be tested. […]

Row | SMILES | FI value (fold of induction, concentration ratio of effector molecules of test group and control group)
1 | CCN(CC)N=O [NDEA, N-nitrosodiethylamine] | 3.59
2 | O=C(O)c1ccccc1O [SA, salicylic acid] | 1.02
